{"source": "patent US20140107523A1", "about": "“MODEL FOR TRAUMATIC BRAIN INJURY” (University of Rochester, priority 2012, published 2014)", "origin": "cited, not measured here", "system": "NMDA receptor", "conditions": "rats treated with the NMDA receptor blocker; spatial learning"}
{"compound": "N[C@@H](CCCP(=O)(O)O)C(=O)O", "note": "[APV]", "values": [{"measurement": "performance in the Morris water maze", "value": "perform poorly"}]}
